According to ChEMBL document CHEMBL6087464, “Design, Synthesis, and Biological Evaluation of 3,4-Dihydroisoquinolin-1(2H)-one Derivatives as Protein Arginine Methyltransferase 5 Inhibitors for the Treatment of Non-Hodgkin's Lymphoma” (J Med Chem, 2025):
Activity calls are given as the source filed them. No cut-off for these calls is given here.

Legend:
[1] = Half-life in Sprague-Dawley rat at 10 mg/kg, po by LC-MS/MS analysis; type: ADME, organism-based; settings: Sprague-Dawley, in vivo
[2] = Clearance in Sprague-Dawley rat at 2 mg/kg, iv by LC-MS/MS analysis; type: ADME, organism-based; settings: in vivo
[3] = Volume of distribution in Sprague-Dawley rat at 2 mg/kg, iv by LC-MS/MS analysis; type: ADME, organism-based; settings: in vivo
[4] = biological target: Protein arginine N-methyltransferase 6 (Homo sapiens, UniProt Q96LA8); experiment: Inhibition of PRMT6 (unknown origin)
Protein arginine N-methyltransferase 6, sequence (Q96LA8 whole entry): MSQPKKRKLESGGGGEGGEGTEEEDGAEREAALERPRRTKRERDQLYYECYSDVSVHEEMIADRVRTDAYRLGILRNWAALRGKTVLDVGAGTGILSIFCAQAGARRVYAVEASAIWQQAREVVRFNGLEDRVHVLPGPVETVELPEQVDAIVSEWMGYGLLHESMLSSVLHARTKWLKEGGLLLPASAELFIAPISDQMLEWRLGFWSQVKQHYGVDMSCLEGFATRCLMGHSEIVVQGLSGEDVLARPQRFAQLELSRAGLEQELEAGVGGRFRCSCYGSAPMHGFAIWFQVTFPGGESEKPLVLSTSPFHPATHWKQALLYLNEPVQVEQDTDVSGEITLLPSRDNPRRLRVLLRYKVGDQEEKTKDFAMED

[5] = biological target: T1, Protein arginine N-methyltransferase 7 (Homo sapiens, UniProt Q9NVM4); experiment: Inhibition of PRMT7 (unknown origin)
T1 sequence (Q9NVM4 whole entry): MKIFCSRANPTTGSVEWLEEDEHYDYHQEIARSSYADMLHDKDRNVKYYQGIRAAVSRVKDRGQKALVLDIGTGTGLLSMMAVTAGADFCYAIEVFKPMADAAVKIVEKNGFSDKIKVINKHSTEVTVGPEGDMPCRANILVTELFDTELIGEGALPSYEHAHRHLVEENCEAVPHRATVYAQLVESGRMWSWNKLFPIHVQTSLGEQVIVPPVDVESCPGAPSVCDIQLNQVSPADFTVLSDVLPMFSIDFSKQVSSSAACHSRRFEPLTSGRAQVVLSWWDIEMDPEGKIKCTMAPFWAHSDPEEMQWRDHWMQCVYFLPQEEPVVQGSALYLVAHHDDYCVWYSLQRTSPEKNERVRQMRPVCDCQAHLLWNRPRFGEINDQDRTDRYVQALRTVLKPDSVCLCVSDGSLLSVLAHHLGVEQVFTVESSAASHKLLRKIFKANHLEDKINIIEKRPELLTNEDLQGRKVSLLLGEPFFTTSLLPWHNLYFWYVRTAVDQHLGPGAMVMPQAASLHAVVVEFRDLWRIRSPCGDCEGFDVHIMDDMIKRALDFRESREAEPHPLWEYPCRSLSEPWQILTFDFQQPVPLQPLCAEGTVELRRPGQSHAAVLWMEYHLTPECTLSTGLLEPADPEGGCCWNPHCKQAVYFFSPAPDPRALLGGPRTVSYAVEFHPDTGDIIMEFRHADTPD

[6] = biological target: Protein arginine N-methyltransferase 8 (Homo sapiens, UniProt Q9NR22); experiment: Inhibition of PRMT8 (unknown origin)
Protein arginine N-methyltransferase 8, sequence (Q9NR22 whole entry): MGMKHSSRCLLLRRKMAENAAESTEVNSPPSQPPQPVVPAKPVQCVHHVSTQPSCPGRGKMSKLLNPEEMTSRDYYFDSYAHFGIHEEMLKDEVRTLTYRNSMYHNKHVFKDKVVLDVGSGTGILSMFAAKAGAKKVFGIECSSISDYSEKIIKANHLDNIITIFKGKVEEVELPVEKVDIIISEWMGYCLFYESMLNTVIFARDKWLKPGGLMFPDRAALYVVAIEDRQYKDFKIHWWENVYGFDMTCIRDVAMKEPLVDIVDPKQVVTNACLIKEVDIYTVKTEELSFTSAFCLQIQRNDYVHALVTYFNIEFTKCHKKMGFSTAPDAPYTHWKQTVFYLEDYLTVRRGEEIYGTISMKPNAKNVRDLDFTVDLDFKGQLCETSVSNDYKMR

Z-138 [7] = experiment: Induction of apoptosis in human Z138 cells assessed as early apoptotic cells at 0.4 nM incubated for 168 hrs by Annexin V-FITC/PI staining based flow cytometric analysis (reference value: 1.68 %); type: functional
Z-138 [8] = experiment: Induction of apoptosis in human Z138 cells assessed as necrotic cells at 2.0 nM incubated for 168 hrs by Annexin V-FITC/PI staining based flow cytometric analysis (reference value: 3.54 %); type: functional
Z-138 [9] = experiment: Induction of apoptosis in human Z138 cells assessed as viable cells at 10.0 nM incubated for 168 hrs by Annexin V-FITC/PI staining based flow cytometric analysis (reference value: 94.4 %); type: functional; settings: read-out: Activity
Z-138 [10] = experiment: Induction of apoptosis in human Z138 cells assessed as necrotic cells at 10.0 nM incubated for 168 hrs by Annexin V-FITC/PI staining based flow cytometric analysis (reference value: 3.54 %); type: functional
Z-138 [11] = experiment: Induction of apoptosis in human Z138 cells assessed as early apoptotic cells at 50.0 nM incubated for 168 hrs by Annexin V-FITC/PI staining based flow cytometric analysis (reference value: 1.68 %); type: functional
Z-138 [12] = experiment: Induction of apoptosis in human Z138 cells assessed as late apoptotic cells at 50.0 nM incubated for 168 hrs by Annexin V-FITC/PI staining based flow cytometric analysis (reference value: 0.37 %); type: functional
Z-138 [13] = experiment: Cell cycle arrest in human Z138 cells assessed as increase in DNA content at 0.4 nM incubated for 168 hrs by RNase A/PI staining based flow cytometric analysis relative to control; type: functional
Z-138 [14] = experiment: Cell cycle arrest in human Z138 cells assessed as increase in DNA content at 50.0 nM incubated for 168 hrs by RNase A/PI staining based flow cytometric analysis relative to control; type: functional
PRMT5/MEP50 complex [15] = biological target: T2, PRMT5/MEP50 complex (Homo sapiens, UniProt O14744+Q9BQA1); experiment: Binding affinity to PRMT5/MEP50 (unknown origin) at 5 uM by SPR analysis; type: protein-complex assay
T2 sequence (O14744 whole entry): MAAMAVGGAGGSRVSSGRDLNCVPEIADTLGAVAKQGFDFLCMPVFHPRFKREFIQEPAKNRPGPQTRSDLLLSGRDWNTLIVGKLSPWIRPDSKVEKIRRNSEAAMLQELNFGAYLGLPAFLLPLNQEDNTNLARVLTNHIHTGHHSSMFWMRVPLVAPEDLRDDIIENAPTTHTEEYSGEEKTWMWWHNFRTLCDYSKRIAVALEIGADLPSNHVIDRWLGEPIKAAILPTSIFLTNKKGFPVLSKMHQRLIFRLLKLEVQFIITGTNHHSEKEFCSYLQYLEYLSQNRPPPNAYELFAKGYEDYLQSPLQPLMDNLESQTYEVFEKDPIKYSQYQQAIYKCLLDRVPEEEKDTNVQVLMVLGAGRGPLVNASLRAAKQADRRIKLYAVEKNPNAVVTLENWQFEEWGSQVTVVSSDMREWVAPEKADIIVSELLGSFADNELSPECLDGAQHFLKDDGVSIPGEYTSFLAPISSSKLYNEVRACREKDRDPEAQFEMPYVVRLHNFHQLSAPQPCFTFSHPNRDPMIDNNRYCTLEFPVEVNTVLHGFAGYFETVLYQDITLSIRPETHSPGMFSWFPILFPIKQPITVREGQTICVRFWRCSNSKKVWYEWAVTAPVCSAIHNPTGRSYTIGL
T2 sequence (Q9BQA1 whole entry): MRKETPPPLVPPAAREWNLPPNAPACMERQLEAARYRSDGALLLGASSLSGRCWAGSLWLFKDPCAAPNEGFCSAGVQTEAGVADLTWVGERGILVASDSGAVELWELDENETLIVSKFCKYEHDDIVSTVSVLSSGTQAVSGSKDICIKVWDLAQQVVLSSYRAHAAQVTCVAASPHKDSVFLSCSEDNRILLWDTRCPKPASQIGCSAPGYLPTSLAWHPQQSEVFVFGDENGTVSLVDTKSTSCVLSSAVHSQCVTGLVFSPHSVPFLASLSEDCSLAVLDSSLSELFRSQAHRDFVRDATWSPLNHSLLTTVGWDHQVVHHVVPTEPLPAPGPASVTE

A549 = experiment: Antiproliferative activity against human A549 cells measured after 4 to 5 days by CCK-8 assay; type: functional, cell-based
MOLM-13 = experiment: Antiproliferative activity against human MOLM-13 cells measured after 4 to 5 days by CCK-8 assay; type: functional, cell-based
NCI-H1299 = experiment: Antiproliferative activity against human NCI-H1299 cells measured after 4 to 5 days by CCK-8 assay; type: functional, cell-based
Z-138 [16] = experiment: Antitumor activity against human Z138 cells xenografted in female SCID.BG nude mouse assessed as tumor growth inhibition at 12.5 mg/kg, po administered twice a day for 21 days relative to control; type: functional; settings: Z-138, 504 h, time 21 day, read-out: TGI
Z-138 [17] = experiment: Antitumor activity against human Z138 cells xenografted in female SCID.BG nude mouse assessed as tumor growth inhibition at 50 mg/kg, po administered twice a day for 21 days relative to control; type: functional; settings: Z-138, 504 h, time 21 day, read-out: TGI
[18] = Toxicity in Sprague-Dawley rat assessed as morphological changes in stomach at 31.25 to 125 mg/kg, po administered once a day for 14 days by H and E staining based analysis; type: organism-based; settings: in vivo, 336 h, dose 31.25-125 mg/kg, time 14 day
[19] = Toxicity in Sprague-Dawley rat assessed as structural changes in thymus at 31.25 to 125 mg/kg, po administered once a day for 14 days by H and E staining based analysis; type: organism-based; settings: in vivo, 336 h, dose 31.25-125 mg/kg, time 14 day
[20] = Metabolic stability in mouse liver microsomes assessed as half-life at 1 uM measured upto 240 mins; type: ADME, Microsome
[21] = Metabolic stability in dog liver microsomes assessed as half-life at 1 uM measured upto 240 mins; type: ADME, Canis lupus familiaris, Microsome
[22] = Metabolic stability in monkey liver microsomes assessed as half-life at 1 uM measured upto 240 mins; type: ADME, Macaca mulatta, Microsome; settings: rhesus monkey
[23] = Protein binding in mouse plasma; type: ADME, cell-free; settings: read-out: PPB (converted)
[24] = Protein binding in Sprague-Dawley rat plasma; type: ADME, cell-free; settings: read-out: PPB (converted)
[25] = Protein binding in human plasma; type: ADME, cell-free; settings: read-out: PPB (converted)
[26] = Protein binding in monkey plasma; type: ADME, cell-free, Macaca mulatta; settings: rhesus monkey, read-out: PPB (converted)
Cytochrome P450 2B6 = Cytochrome P450 2B6 (Homo sapiens, UniProt P20813); experiment: Inhibition of CYP2B6 (unknown origin); type: ADME
Cytochrome P450 2B6, sequence (P20813 whole entry): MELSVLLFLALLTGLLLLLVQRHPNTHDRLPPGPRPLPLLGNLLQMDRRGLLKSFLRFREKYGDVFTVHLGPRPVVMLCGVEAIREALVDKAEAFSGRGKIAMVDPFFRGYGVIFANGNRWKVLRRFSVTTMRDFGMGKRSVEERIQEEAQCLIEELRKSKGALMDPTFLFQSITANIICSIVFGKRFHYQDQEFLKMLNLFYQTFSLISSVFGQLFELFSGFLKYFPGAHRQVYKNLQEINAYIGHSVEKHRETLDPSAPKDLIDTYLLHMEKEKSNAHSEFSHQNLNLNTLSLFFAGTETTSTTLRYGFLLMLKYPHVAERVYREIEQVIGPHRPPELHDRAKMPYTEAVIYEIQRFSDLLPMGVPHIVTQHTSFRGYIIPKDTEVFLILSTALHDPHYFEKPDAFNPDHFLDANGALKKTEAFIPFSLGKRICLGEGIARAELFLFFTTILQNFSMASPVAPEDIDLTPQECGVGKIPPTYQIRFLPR

Cytochrome P450 2C8 = Cytochrome P450 2C8 (Homo sapiens, UniProt P10632); experiment: Inhibition of CYP2C8 (unknown origin); type: ADME
Cytochrome P450 2C8, sequence (P10632 whole entry): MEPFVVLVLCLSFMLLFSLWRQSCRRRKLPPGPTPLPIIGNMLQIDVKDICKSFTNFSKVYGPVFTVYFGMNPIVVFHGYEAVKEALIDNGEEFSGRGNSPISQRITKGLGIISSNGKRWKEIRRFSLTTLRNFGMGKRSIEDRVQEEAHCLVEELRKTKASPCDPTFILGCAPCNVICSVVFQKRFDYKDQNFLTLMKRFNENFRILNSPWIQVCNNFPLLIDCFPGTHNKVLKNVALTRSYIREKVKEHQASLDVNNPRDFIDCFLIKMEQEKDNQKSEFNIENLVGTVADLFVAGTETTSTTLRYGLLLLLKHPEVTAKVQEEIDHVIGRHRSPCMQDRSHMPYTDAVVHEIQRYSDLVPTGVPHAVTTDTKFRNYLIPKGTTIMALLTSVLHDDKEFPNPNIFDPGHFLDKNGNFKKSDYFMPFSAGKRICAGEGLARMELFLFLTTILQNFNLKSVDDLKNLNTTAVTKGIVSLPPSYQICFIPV

Cytochrome P450 2C9 = Cytochrome P450 2C9 (Homo sapiens, UniProt P11712); experiment: Inhibition of CYP2C9 (unknown origin); type: ADME
Cytochrome P450 2C9, sequence (P11712 whole entry): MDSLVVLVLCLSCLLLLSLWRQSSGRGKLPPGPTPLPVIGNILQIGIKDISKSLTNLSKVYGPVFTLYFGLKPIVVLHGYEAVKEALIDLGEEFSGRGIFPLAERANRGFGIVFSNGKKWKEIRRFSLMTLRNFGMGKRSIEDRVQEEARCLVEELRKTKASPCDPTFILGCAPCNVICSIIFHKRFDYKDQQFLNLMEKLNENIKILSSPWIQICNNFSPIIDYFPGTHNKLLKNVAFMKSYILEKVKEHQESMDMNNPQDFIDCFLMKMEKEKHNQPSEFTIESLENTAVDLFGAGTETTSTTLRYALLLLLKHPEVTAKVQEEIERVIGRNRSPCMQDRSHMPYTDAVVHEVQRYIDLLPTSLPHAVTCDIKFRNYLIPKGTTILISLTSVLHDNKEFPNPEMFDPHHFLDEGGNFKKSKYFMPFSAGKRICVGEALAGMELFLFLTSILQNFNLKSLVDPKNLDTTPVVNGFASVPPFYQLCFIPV

PRMT5/MEP50 complex [27] = biological target: T2, PRMT5/MEP50 complex; experiment: Binding affinity to PRMT5/MEP50 (unknown origin) assessed as dissociation rate constant (koff) by SPR analysis

Structure (SMILES)	half-life [1] [h]	clearance [2] [mL/min/kg]	Vd [3] [L/kg]	IC50 [4] [µM]	IC50 [5] [µM]	IC50 [6] [µM]	Activity (Z-138 [7]) [%]	Activity (Z-138 [8]) [%]	viability at 0.01 µM (Z-138 [9]) [%]	Activity (Z-138 [10]) [%]	Activity (Z-138 [11]) [%]	Activity (Z-138 [12]) [%]	Activity (Z-138 [13]) [%]	Activity (Z-138 [14]) [%]	other results
CC(=O)N1CCC(Nc2cc(C(=O)NC[C@H](O)CN3CCc4ccccc4C3)ncn2)CC1 [PEMRAMETOSTAT]	0.6	56.7	1.4	> 10	> 10	> 10	1.53	2.64	86	5.31	34.1	7.38	50.9	59.2	–
CC(=O)N1CC2(CC(Nc3cc4c(cn3)C3(CC3)CN(C[C@H](O)CN3CCc5ccccc5C3)C4=O)C2)C1	2.2	41.7	1.4	> 10	> 10	> 10	1.89	6.68	9.21	3.87	78.2	11.4	52.4	71.6	Activity (PRMT5/MEP50 complex [15]): Active; IC50 (A549): 0.0137 µM; IC50 (MOLM-13): 0.0301 µM; IC50 (NCI-H1299): 0.0556 µM; inhibition in vivo at 12.5 mg/kg (Z-138 [16]): 104%; inhibition in vivo at 50 mg/kg (Z-138 [17]): 106%; Activity [18]: Non-toxic; Activity [19]: Non-toxic; half-life at 1 µM [20]: 1.39 h; half-life at 1 µM [21]: 2.54 h; half-life at 1 µM [22]: 0.304 h; fraction unbound [23]: 0.0701; fraction unbound [24]: 0.04; fraction unbound [25]: 0.106; fraction unbound [26]: 0.11; IC50 (Cytochrome P450 2B6): > 50 µM; IC50 (Cytochrome P450 2C8): > 50 µM; IC50 (Cytochrome P450 2C9): > 50 µM; koff (PRMT5/MEP50 complex [27]): 3.62 10^-2/s
